This passage reports biological efficacy, LogP and chromatographic logP results from patent US9550752B2, “Triazolinthione derivatives” (priority 2013, dated 2017).

The structures appear in SMILES notation. Marks after values point to notes of the source that are not given here. Some results are limits rather than exact numbers.

For one data set, the system named is Botrytis cinerea. In words: In vivo preventive test on Botrytis cinerea (grey mould). Particulars: 100 ppm of active ingredient; gherkin plants, preventive spray; evaluated 4 to 5 days after inoculation. The protocol:
The young plants of gherkin are treated by spraying the active ingredient prepared as described above. Control plants are treated only with an aqueous solution of acetone/Dimethyl sulfoxide/tween®. After 24 hours, the plants are contaminated by spraying the leaves with an aqueous suspension of Botrytis cinerea spores.
For `OC(Cc1ccncc1Cl)(Cn1ncnc1S)C1(F)CC1` (stereo not shown) [Example I-13], the biological efficacy is on record as no less than 90%.

Tested on in a further data set: not given
Assay: not given
Particulars: method [a]: pH 2.7, 0.1% formic acid in water/acetonitrile; Table 2, formula (XXI).
In the case of `OC(Cc1ccncc1Cl)(Cn1cncn1)c1ccc2oc3ccccc3c2c1` (stereo not shown) [XXI-85], the LogP was 2.40^[a].

Still in this data set, the particulars now being: method [a]: pH 2.7; Table 3, formula (V).
Turning to `O=C(Cc1cccnc1Cl)C(CF)(CF)CF` [Example V-25], the LogP was 1.98^[a].

The data set is the same for the next values; noted with them: method [a]: pH 2.7; Table 4, formula (XII).
Consider `CC(C)(C)C1(Cc2ncc(Cl)cc2Cl)CO1` (stereo not shown) [XII-6], for which the LogP was 4.06^[a].

As to `CC(C)(C)C1(Cc2cnc3ccccc3c2)CO1` (stereo not shown) [XII-7], the LogP was 1.86^[a].

Compound `CC(C)(C)C1(Cc2cccnc2Cl)CO1` (stereo not shown) [XII-9] returned a log partition coefficient (LogP) of 2.97. The same measure, in the same setting: to `CC(C)(C)C1(Cc2ccncc2Cl)CO1` (stereo not shown) [XII-10] belongs 2.80^[a]. Turning to `CC(C)(C)C1(Cc2ccncc2F)CO1` (stereo not shown) [XII-12], the LogP is 2.31^[a]. On to `CCC(C)(C)C1(Cc2ccncc2F)CO1` (stereo not shown) [XII-15], for which the LogP was 2.76^[a]. For `CC(C)C(C)(C)C1(Cc2ccncc2F)CO1` (stereo not shown) [XII-17], the LogP was 3.19^[a].

On to `CCC(C)(C)C1(Cc2ccnc(Cl)c2)CO1` (stereo not shown) [XII-18], for which the LogP is 3.51^[a]. Same read-out and setting: to `CC(C)C(C)(C)C1(Cc2ccnc(Cl)c2)CO1` (stereo not shown) [XII-21] belongs 3.94^[a]; to `CC(C)(C)C1(Cc2ccnc(Cl)c2)CO1` (stereo not shown) [XII-22], 3.06^[a]; to `CC(C)C(C)(C)C1(Cc2cc(Cl)ncc2F)CO1` (stereo not shown) [XII-24], 4.34^[a]. Consider `CCC(C)(C)C1(Cc2cc(Cl)ncc2F)CO1` (stereo not shown) [XII-27], for which the log partition coefficient (LogP) is 3.89^[a]. The same measure, in the same setting: to `CC(C)(C)C1(Cc2cc(Cl)ncc2F)CO1` (stereo not shown) [XII-28] belongs 3.42^[a]; to `CC(C)C(C)(C)C1(Cc2ccncc2Cl)CO1` (stereo not shown) [XII-30], 3.75^[a]. For `CCC(C)(C)C1(Cc2ccncc2Cl)CO1` (stereo not shown) [XII-34], the LogP is 3.33^[a]. On the same count and under the same terms, under `CC(C)(C)C1(Cc2cc(F)ncc2Cl)CO1` (stereo not shown) [XII-38] stands 3.65^[a]; under `CCC(C)(C)C1(Cc2cc(F)ncc2Cl)CO1` (stereo not shown) [XII-40], 4.17^[a]; under `CC(C)(C)C1(Cc2ccnc(Cl)c2F)CO1` (stereo not shown) [XII-46], 3.37^[a]. The same measure, in the same setting: to `CC(C)(C)C1(Cc2c(Cl)cncc2Cl)CO1` (stereo not shown) [XII-52] belongs 3.89^[a]. The same measure, in the same setting: under `CCC(C)(C)C1(Cc2c(Cl)cncc2Cl)CO1` (stereo not shown) [XII-54] stands 4.41^[a]; under `CCCC(C)(C)C1(Cc2ccncc2Cl)CO1` (stereo not shown) [XII-57], 2.03^[a].

The data set is the same for the next values; noted with them: method [b]: pH 7.8; Table 4, formula (XII).
Turning to `CC(C)(C)C1(Cc2cccnc2Cl)CO1` (stereo not shown) [XII-9], the lipophilicity (LogP) is listed as 2.96.

Still in this data set, the particulars now being: pH 2.7.
With `OC(Cc1cccnc1Cl)(Cn1ncnc1S)C1(F)CC1` (stereo not shown) [Example I-11], the LogP was 1.76^[a].

Turning to `OC(Cc1ccncc1Cl)(Cn1ncnc1S)C1(F)CC1` (stereo not shown) [Example I-13], the lipophilicity (LogP) was 1.63^[a]. Still for that read-out and setting: to `CCC(C)(C)C(O)(Cc1ccncc1F)Cn1ncnc1S` (stereo not shown) [Example I-17] belongs 2.14^[a]; to `OC(CCl)(Cc1cc(Cl)nc(Cl)c1)C1(Cl)CC1` (stereo not shown) [XV-1], 3.85^[a].

For `CC(C)(C)C(O)(Cc1cnc2ccccc2c1)Cn1cncn1` (stereo not shown) [XXI-8], the lipophilicity (LogP) is 1.18^[a]. As for `CC(C)(C)C(O)(Cc1ccc(Cl)nc1)Cn1cncn1` (stereo not shown) [XXI-9], the LogP is 1.98^[a]. Turning to `CC(C)(C)C(O)(Cc1cccnc1Cl)Cn1cncn1` (stereo not shown) [XXI-10], the LogP is 1.94^[a]. Same read-out and setting: under `CC(C)(C)C(O)(Cc1ccncc1Cl)Cn1cncn1` (stereo not shown) [XXI-11] stands 1.74^[a]; under `CCC(C)(C)C(O)(Cc1ccncc1Cl)Cn1cncn1` (stereo not shown) [XXI-12], 2.13^[a]. As for `Cc1cc(C(O)(Cc2ccncc2Cl)Cn2cncn2)nn1C` (stereo not shown) [XXI-71], the LogP is 0.84^[a]. Consider `OC(Cc1ccc(Cl)cn1)(Cn1cncn1)C1(Cl)CC1` (stereo not shown) [XXI-72], for which the log partition coefficient (LogP) was 2.23^[a]. The same measure, in the same setting: under `OC(CCc1ccccc1Cl)(Cc1ccncc1Cl)Cn1cncn1` (stereo not shown) [XXI-73] stands 2.29^[a].

Consider `OC(CCc1ccc(Cl)cc1)(Cc1ccncc1Cl)Cn1cncn1` (stereo not shown) [XXI-74], for which the LogP was 2.40^[a]. Consider `CC(C)(Oc1ccc(Cl)cc1)C(O)(Cc1ccncc1Cl)Cn1cncn1` (stereo not shown) [XXI-75], for which the LogP is 2.84^[a]. Turning to `OC(Cc1nccnc1Br)(Cn1cncn1)C1(Cl)CC1` (stereo not shown) [XXI-76], the LogP is 1.96^[a]. Still for that read-out and setting: to `COc1nccnc1CC(O)(Cn1cncn1)C1(Cl)CC1` (stereo not shown) [XXI-77] belongs 1.88^[a]; to `OC(Cc1ccccc1F)(Cc1cc(Cl)ncc1F)Cn1cncn1` (stereo not shown) [XXI-78], 2.34^[a]. Still for that read-out and setting: to `OC(Cc1cccc(Cl)c1)(Cc1cc(Cl)ncc1F)Cn1cncn1` (stereo not shown) [XXI-79] belongs 2.69^[a]; to `OC(Cc1ccc(F)cc1)(Cc1ccncc1Cl)Cn1cncn1` (stereo not shown) [XXI-80], 1.93^[a]; to `CC(C)(F)C(O)(Cc1ccncc1Cl)Cn1cncn1` (stereo not shown) [XXI-81], 1.20^[a]. With `OC(Cc1ccncc1Cl)(Cn1cncn1)C1CCC1` (stereo not shown) [XXI-82], the log partition coefficient (LogP) was 1.46^[a]. Turning to `OC(Cc1ccncc1Cl)(Cn1cncn1)C1(c2ccccc2)CC1` (stereo not shown) [XXI-83], the LogP is 2.23^[a]. Same read-out and setting: under `OC(COc1ccc(F)cc1)(Cc1ccncc1Cl)Cn1cncn1` (stereo not shown) [XXI-84] stands 1.86^[a]; under `OC(Cc1ccncc1C(F)(F)F)(Cn1cncn1)C1(Cl)CC1` (stereo not shown) [XXI-86], 2.08^[a]. The same measure, in the same setting: to `OC(Cc1ccnc(Cl)c1Cl)(Cn1cncn1)C1(Cl)CC1` (stereo not shown) [XXI-87] belongs 2.39^[a]; to `OC(Cc1cc(Cl)cnc1Cl)(Cn1cncn1)C1(Cl)CC1` (stereo not shown) [XXI-88], 2.53^[a]; to `Cc1cccc2cc(CC(O)(Cn3cncn3)C3(Cl)CC3)c(Cl)nc12` (stereo not shown) [XXI-89], 3.53^[a]. Take `OC(Cc1ccccc1F)(Cc1ccnc(Cl)c1F)Cn1cncn1` (stereo not shown) [XXI-90]: the log partition coefficient (LogP) is 1.73^[a].

Regarding `OC(Cc1ccnc(Cl)c1F)(Cn1cncn1)c1ccc(Cl)nc1` (stereo not shown) [XXI-91], the lipophilicity (LogP) is 1.23^[a]. The same measure, in the same setting: to `OC(Cc1ccnc(Cl)c1F)(Cn1cncn1)C1(F)CC1` (stereo not shown) [XXI-92] belongs 1.23^[a]; to `OC(Cc1cccc(Cl)c1)(Cc1ccnc(Cl)c1F)Cn1cncn1` (stereo not shown) [XXI-93], 2.02^[a]. Consider `OC(Cc1cc(F)ncc1Cl)(Cn1cncn1)C1(Cl)CC1` (stereo not shown) [XXI-94], for which the lipophilicity (LogP) was 2.30^[a]. Still for that read-out and setting: under `CC(C)(CCl)C(O)(Cc1ccncc1Cl)Cn1cncn1` (stereo not shown) [XXI-95] stands 1.76^[a].

On to `CC(C)(Oc1ccc(F)cc1)C(O)(Cc1ccncc1Cl)Cn1cncn1` (stereo not shown) [XXI-96], for which the LogP was 2.48^[a].

Staying with this data set, now noted: pH 7.8.
`CC(C)(C)C(O)(Cc1ccc(Cl)nc1)Cn1cncn1` (stereo not shown) [XXI-9]: the lipophilicity (LogP) is 1.98^[b];.

Regarding `CC(C)(C)C(O)(Cc1cccnc1Cl)Cn1cncn1` (stereo not shown) [XXI-10], the lipophilicity (LogP) is 1.90^[b];. Still for that read-out and setting: to `CC(C)(CCl)C(O)(Cc1ccncc1Cl)Cn1cncn1` (stereo not shown) [XXI-95] belongs 1.96^[b];; to `CC(C)(Oc1ccc(F)cc1)C(O)(Cc1ccncc1Cl)Cn1cncn1` (stereo not shown) [XXI-96], 2.60^[b];.

Tested on in the next data set: not listed separately
Put plainly: physchem. The settings on record: pH 2.7.
In turn, `O=C(Cc1cccnc1Cl)C1(Cl)CC1` [Example V-3, 1-(1-chlorocyclopropyl)-2-(2-chloropyridin-3-yl)ethanone] returned a chromatographic logP of 2.2.

The same data set, now with this note: pH 7.8.
As to `O=C(Cc1cccnc1Cl)C1(Cl)CC1` [Example V-3, 1-(1-chlorocyclopropyl)-2-(2-chloropyridin-3-yl)ethanone], the chromatographic logP turned out to be 2.21.

Staying with this data set, now noted: reversed phase HPLC column, pH 2.7.
Regarding `OC(Cc1ccncc1Cl)(Cn1nc[nH]c1=S)C1(Cl)CC1` (stereo not shown) [Example I-3, 2-[2-(1-chlorocyclopropyl)-3-(3-chloropyridin-4-yl)-2-hydroxypropyl]-2,4-dihydro-3H-1,2,4-triazole-3-thione], the chromatographic logP amounted to 2.01.

Regarding `OC(Cc1ccncc1Cl)(Cn1cncn1)C1(Cl)CC1` (stereo not shown) [XXI-5, 2-(1-chlorocyclopropyl)-1-(3-chloropyridin-4-yl)-3-(1H-1,2,4-triazol-1-yl)propan-2-ol], the chromatographic logP stood at 1.67.

The data set is the same for the next values; noted with them: reversed phase HPLC column, pH 7.8.
The compound `OC(Cc1ccncc1Cl)(Cn1cncn1)C1(Cl)CC1` (stereo not shown) [XXI-5, 2-(1-chlorocyclopropyl)-1-(3-chloropyridin-4-yl)-3-(1H-1,2,4-triazol-1-yl)propan-2-ol] registered a chromatographic logP of 1.75.

A further data set has as its system Pyricularia oryzae.
Assay: not given
The class given is in vivo. Particulars: 500 ppm of active ingredient; rice, preventive; evaluated 8 days after inoculation.
On to `OC(Cc1cccnc1Cl)(Cn1ncnc1S)C1(F)CC1` (stereo not shown) [Example I-11], for which the biological efficacy was no less than 90%.

A further data set has as its system Pyrenophora teres. Put plainly: In vivo preventive test on Pyrenophora teres (net blotch on barley). The settings on record: 500 ppm of active ingredient; barley plants, preventive spray; evaluated 14 days after inoculation. On the procedure:
The young plants of barley are treated by spraying the active ingredient prepared as described above. Control plants are treated only with an aqueous solution of acetone/Dimethyl sulfoxide/tween®. After 24 hours, the plants are contaminated by spraying the leaves with an aqueous suspension of Pyrenophora teres spores.
`CCC(C)(C)C(O)(Cc1ccncc1F)Cn1ncnc1S` (stereo not shown) [Example I-17] displayed a biological efficacy of no less than 90%.
